Assay results reported in patent publication US5736380A, “Maltose-trehalose converting enzyme, and preparation and uses thereof” (Kabushiki Kaisha Hayashibara Seibutsu Kagaku Kenkyujo, priority 1993, dated 1998).
Entries after “also recorded” stand apart in the source; their conditions may differ. Counter-ions that a name gives are not always drawn.

Key:
[1] = system: maltose-trehalose converting enzyme; experiment: Inhibition of activity of the present enzyme; assay type: biochemical, microorganisms; details: one mM Cu^++, Hg^++ and Tris-HCl buffer
Experimental: The activity of the present maltose-trehalose converting enzyme is assayed as follows: One ml of an enzyme solution is added to one ml of 20 w/v % maltose as a substrate in 10 mM phosphate buffer (pH 7.0), and the mixture solution is incubated at 25° C., 35° C. or 60° C. for 60 min, followed by the heating the solution at 100° C. for 10 min to suspend the enzymatic reaction. To the resultant reaction mixture is precisely diluted by 11-fold with 50 mM phosphate buffer (pH 7.5), and 0.4 ml of the diluted solution is admixed with 0.1 ml of a trehalase solution having one unit/ml of trehalase. […] As a control, by using trehalase and an enzyme solution, which were preheated at 100° C. for 10 min to inactivate the enzyme, the activity of the enzyme solution is assayed similarly as above. […] As regards to the reaction temperature, it is set to 25° C. for the enzyme of a microorganism of the genus Pimelobacter; 35° C. for that of the genus Pseudomonas; and 60° C. for that of the genus Thermus.

[2] = biological target: T1, maltose-trehalose converting enzyme derived from Pimelobacter sp. R48 (Pimelobacter sp., UniProt P72235); experiment: Inhibition of enzyme activity; assay type: biochemical; details: one mM Cu^++ or Hg^++, 50 mM Tris-HCl buffer
T1 construct: The culture obtained in Experiment 1 was centrifuged to obtain an about 0.5 kg wet cells; endogenous in cells; host or cells: Pimelobacter sp; R48 (FERM BP-4315), enzyme purified from the disrupted wild-type cells
T1 sequence (P72235 1-573): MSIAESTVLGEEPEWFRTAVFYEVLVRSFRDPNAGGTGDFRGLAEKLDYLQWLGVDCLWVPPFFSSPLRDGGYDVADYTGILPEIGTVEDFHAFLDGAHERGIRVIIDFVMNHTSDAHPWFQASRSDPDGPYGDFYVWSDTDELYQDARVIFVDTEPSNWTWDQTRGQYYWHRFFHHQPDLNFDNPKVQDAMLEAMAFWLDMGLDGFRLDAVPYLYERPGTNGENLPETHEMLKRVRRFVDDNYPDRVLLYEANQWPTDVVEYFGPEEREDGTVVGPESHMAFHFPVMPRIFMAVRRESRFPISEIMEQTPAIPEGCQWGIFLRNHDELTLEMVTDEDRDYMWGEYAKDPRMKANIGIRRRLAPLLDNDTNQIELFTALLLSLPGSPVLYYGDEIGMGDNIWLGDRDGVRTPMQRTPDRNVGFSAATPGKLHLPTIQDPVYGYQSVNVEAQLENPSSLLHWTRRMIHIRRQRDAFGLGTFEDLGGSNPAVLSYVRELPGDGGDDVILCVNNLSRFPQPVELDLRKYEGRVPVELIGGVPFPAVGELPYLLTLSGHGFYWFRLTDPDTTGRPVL
Experimental: The activity of the present maltose-trehalose converting enzyme is assayed as follows: One ml of an enzyme solution is added to one ml of 20 w/v % maltose as a substrate in 10 mM phosphate buffer (pH 7.0), and the mixture solution is incubated at 25° C., 35° C. or 60° C. for 60 min, followed by the heating the solution at 100° C. for 10 min to suspend the enzymatic reaction. To the resultant reaction mixture is precisely diluted by 11-fold with 50 mM phosphate buffer (pH 7.5), and 0.4 ml of the diluted solution is admixed with 0.1 ml of a trehalase solution having one unit/ml of trehalase. The resultant solution is incubated at 45° C. for 120 min, followed by determining the amount of glucose by the glucose-oxidase method. As a control, by using trehalase and an enzyme solution, which were preheated at 100° C. for 10 min to inactivate the enzyme, the activity of the enzyme solution is assayed similarly as above. With the above assay, the content of trehalose, formed by the present maltose-trehalose converting enzyme, is determined based on the amount of glucose formed, and one unit activity of the enzyme is defined as the amount of enzyme which forms one μmole of trehalose per minute. As regards to the reaction temperature, it is set to 25° C. for the enzyme of a microorganism of the genus Pimelobacter; 35° C. for that of the genus Pseudomonas; and 60° C. for that of the genus Thermus.
Effects of temperature and pH on the activity of the present enzyme were studied in accordance with the method as used for assaying the enzyme activity. […] The thermal stability of the enzyme was determined by incubating it in 50 mM phosphate buffers (pH 7.0) in test tubes at different temperatures for 60 min, cooling the test tubes with cold water, and assaying the residual enzyme activity in each buffer. The pH stability of the enzyme was determined by incubating it in 50 mM phosphate buffers having different pHs at 20° C. for 60 min, adjusting the buffers to pH 7.0, and assaying the residual enzyme activity in each buffer.

Compound | Inhibition of activity [1] | Inhibition of activity [2]
NC(CO)(CO)CO [Tris-HCl buffer] | inhibited | inhibited; also recorded: inhibitory
[Cu+2] [Cu^++] | inhibited | inhibited; also recorded: inhibitory
[Hg+2] [Hg^++] | inhibited | inhibited; also recorded: inhibitory
